Results: PubChem BioAssay AID248 (DTP/NCI, 2004)
“And” between values parts separate entries of the source, which are not always exact repeats. Identical values can stand only once. Inconclusive results and toxic doses are left out. Cut-off read from the data, not from the text of the source: active = T/C of 150% or more; inactive = T/C below 125%.

System: L1210 leukemia ip in BDF1 mice, survival T/C
Assay: NCI In Vivo Anticancer Drug Screen. Data for tumor model L1210 Leukemia (intraperitoneal) in B6D2F1 (BDF1) mice
Details: higher = longer survival
Method in brief: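 Mice bearing the transplanted tumor received compound or vehicle. Survival of the treated group was divided by that of the vehicle-treated control group to give the ratio.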

[1] = endpoint: mean survival time, dose: 50.0 mg/kg/injection, schedule: Q04DX003 (ip), vehicle: saline with Tween-80
[2] = endpoint: mean survival time, dose: 100.0 mg/kg/injection, schedule: Q01DX009 (ip), vehicle: saline with Tween-80
[3] = endpoint: mean survival time, dose: 200.0 mg/kg/injection, schedule: Q01DX009 (ip), vehicle: saline with Tween-80
[4] = endpoint: mean survival time, dose: 400.0 mg/kg/injection, schedule: Q01DX009 (ip), vehicle: saline with Tween-80
[5] = endpoint: mean survival time, dose: 100.0 mg/kg/injection, schedule: Q04DX003 (ip), vehicle: saline with Tween-80
[6] = endpoint: mean survival time, dose: 200.0 mg/kg/injection, schedule: Q04DX003 (ip), vehicle: saline with Tween-80
[7] = endpoint: mean survival time, dose: 400.0 mg/kg/injection, schedule: Q04DX003 (ip), vehicle: saline with Tween-80
[8] = endpoint: mean survival time, dose: 25.0 mg/kg/injection, schedule: Q04DX002 (ip), vehicle: Klucel (hydroxypropylcellulose) (HPC)
[9] = endpoint: mean survival time, dose: 50.0 mg/kg/injection, schedule: Q04DX002 (ip), vehicle: Klucel (hydroxypropylcellulose) (HPC)
[10] = endpoint: mean survival time, dose: 100.0 mg/kg/injection, schedule: Q04DX002 (ip), vehicle: Klucel (hydroxypropylcellulose) (HPC)
[11] = endpoint: mean survival time, dose: 100.0 mg/kg/injection, schedule: Q01DX001 (ip), vehicle: carboxymethylcellulose (CMC)
[12] = endpoint: mean survival time, dose: 400.0 mg/kg/injection, schedule: Q01DX001 (ip), vehicle: carboxymethylcellulose (CMC)
[13] = endpoint: mean survival time, dose: 200.0 mg/kg/injection, schedule: Q01DX001 (ip), vehicle: carboxymethylcellulose (CMC)
[14] = endpoint: mean survival time, dose: 75.0 mg/kg/injection, schedule: Q01DX001 (ip), vehicle: saline

Measured: T/C

NC(=O)c1[nH]nc(C2OC(CO)C(O)C2O)c1O (centres undefined)
inactive: endpoint: mean survival time, dose: 2.5 mg/kg/injection, schedule: Q01DX009 (ip), vehicle: saline 115 % of control | endpoint: mean survival time, dose: 2.5 mg/kg/injection, schedule: Q04DX003 (ip), vehicle: saline 110 % of control | endpoint: mean survival time, dose: 5.0 mg/kg/injection, schedule: Q01DX001 (ip), vehicle: saline 109 % of control | endpoint: mean survival time, dose: 5.0 mg/kg/injection, schedule: Q01DX009 (ip), vehicle: saline 96 % of control | endpoint: mean survival time, dose: 5.0 mg/kg/injection, schedule: Q04DX003 (ip), vehicle: saline 111 % of control and 123 % of control | endpoint: mean survival time, dose: 6.6 mg/kg/injection, schedule: Q04DX003 (ip), vehicle: saline 107 % of control | endpoint: mean survival time, dose: 10.0 mg/kg/injection, schedule: Q01DX001 (ip), vehicle: saline 113 % of control | endpoint: mean survival time, dose: 10.0 mg/kg/injection, schedule: Q04DX003 (ip), vehicle: saline 113 % of control and 121 % of control | endpoint: mean survival time, dose: 20.0 mg/kg/injection, schedule: Q01DX001 (ip), vehicle: saline 111 % of control | endpoint: mean survival time, dose: 20.0 mg/kg/injection, schedule: Q04DX003 (ip), vehicle: saline 121 % of control | endpoint: median survival time, dose: 0.5 mg/kg/injection, schedule: Q04DX003 (ip), vehicle: saline 108 % of control | endpoint: median survival time, dose: 1.0 mg/kg/injection, schedule: Q04DX003 (ip), vehicle: saline 106 % of control and 107 % of control | endpoint: median survival time, dose: 2.0 mg/kg/injection, schedule: Q04DX003 (ip), vehicle: saline 107 % of control and 112 % of control | endpoint: median survival time, dose: 4.0 mg/kg/injection, schedule: Q04DX003 (ip), vehicle: saline 109 % of control and 118 % of control | endpoint: median survival time, dose: 8.0 mg/kg/injection, schedule: Q04DX003 (ip), vehicle: saline 112 % of control and 121 % of control

CNC(=O)OCC1=C(OC)C(=O)C(OC)=CC1=O
inactive: endpoint: mean survival time, dose: 12.5 mg/kg/injection, schedule: Q01DX009 (ip), vehicle: other 90 % of control | endpoint: mean survival time, dose: 12.5 mg/kg/injection, schedule: Q04DX003 (ip), vehicle: other 97 % of control | endpoint: mean survival time, dose: 25.0 mg/kg/injection, schedule: Q01DX009 (ip), vehicle: other 92 % of control | endpoint: mean survival time, dose: 25.0 mg/kg/injection, schedule: Q04DX003 (ip), vehicle: other 96 % of control | endpoint: mean survival time, dose: 50.0 mg/kg/injection, schedule: Q01DX009 (ip), vehicle: other 90 % of control | endpoint: mean survival time, dose: 50.0 mg/kg/injection, schedule: Q04DX003 (ip), vehicle: other 100 % of control

CC(=O)CC(C)=NCCN=C(C)CC(C)=O.[Cu]
inactive: endpoint: mean survival time, dose: 6.0 mg/kg/injection, schedule: Q01DX009 (ip), vehicle: saline with Tween-80 97 % of control | endpoint: mean survival time, dose: 12.0 mg/kg/injection, schedule: Q01DX009 (ip), vehicle: saline with Tween-80 98 % of control | endpoint: mean survival time, dose: 12.5 mg/kg/injection, schedule: Q01DX001 (ip), vehicle: saline with Tween-80 94 % of control | endpoint: mean survival time, dose: 12.5 mg/kg/injection, schedule: Q04DX003 (ip), vehicle: saline with Tween-80 93 % of control | endpoint: mean survival time, dose: 25.0 mg/kg/injection, schedule: Q01DX001 (ip), vehicle: saline with Tween-80 91 % of control | endpoint: mean survival time, dose: 25.0 mg/kg/injection, schedule: Q01DX009 (ip), vehicle: saline with Tween-80 101 % of control | endpoint: mean survival time, dose: 25.0 mg/kg/injection, schedule: Q04DX003 (ip), vehicle: saline with Tween-80 100 % of control | endpoint: mean survival time, dose: 50.0 mg/kg/injection, schedule: Q01DX001 (ip), vehicle: saline with Tween-80 91 % of control | [1] 88 % of control

COc1cc(CC(=O)O)ccc1OCc1ccccc1
inactive: [2] 101 % of control | [3] 101 % of control | [4] 116 % of control

CCOC(=O)c1ccc(NC(=O)Nc2cccc3c(O)cccc23)cc1
inactive: [1] 102 % of control | endpoint: mean survival time, dose: 100.0 mg/kg/injection, schedule: Q01DX001 (ip), vehicle: saline with Tween-80 86 % of control | [2] 86 % of control | endpoint: mean survival time, dose: 100.0 mg/kg/injection, schedule: Q04DX002 (ip), vehicle: saline with Tween-80 97 % of control and 106 % of control | [5] 94 % of control | endpoint: mean survival time, dose: 200.0 mg/kg/injection, schedule: Q01DX001 (ip), vehicle: saline with Tween-80 86 % of control | [3] 89 % of control | endpoint: mean survival time, dose: 200.0 mg/kg/injection, schedule: Q04DX002 (ip), vehicle: saline with Tween-80 97 % of control and 91 % of control | [6] 93 % of control and 87 % of control | [4] 89 % of control | endpoint: mean survival time, dose: 400.0 mg/kg/injection, schedule: Q04DX002 (ip), vehicle: saline with Tween-80 89 % of control and 91 % of control | [7] 97 % of control

CC(=O)OC1CCC2(C)C(CCC3C2CCC2(C)C3C(c3ccccc3Cl)C3C=NN(c4ccccc4)C32C(=O)c2ccccc2)C1 (centres undefined)
inactive: [8] 97 % of control | [9] 94 % of control | [10] 94 % of control

O=c1[nH]c2ccccc2c2cc3ccccc3cc12
inactive: endpoint: mean survival time, dose: 88.8 mg/kg/injection, schedule: Q01DX001 (ip), vehicle: carboxymethylcellulose (CMC) 93 % of control and 102 % of control | [11] 93 % of control | endpoint: mean survival time, dose: 133.4 mg/kg/injection, schedule: Q01DX001 (ip), vehicle: carboxymethylcellulose (CMC) 95 % of control and 102 % of control | endpoint: mean survival time, dose: 300.0 mg/kg/injection, schedule: Q01DX001 (ip), vehicle: carboxymethylcellulose (CMC) 100 % of control and 88 % of control | [12] 93 % of control

O=C(Nc1cccc(F)c1)Nc1ncccn1
inactive: [2] 90 % of control | [3] 86 % of control | [4] 100 % of control

CCS(=O)(=O)OCCCl
inactive: endpoint: mean survival time, dose: 25.0 mg/kg/injection, schedule: Q01DX009 (ip), vehicle: Klucel (hydroxypropylcellulose) (HPC) 94 % of control | [8] 97 % of control | endpoint: mean survival time, dose: 50.0 mg/kg/injection, schedule: Q01DX009 (ip), vehicle: Klucel (hydroxypropylcellulose) (HPC) 93 % of control | [9] 94 % of control | [11] 112 % of control | [10] 102 % of control and 90 % of control | [13] 116 % of control

NC(=O)c1ccc(F)cc1
inactive: [11] 95 % of control | [13] 104 % of control | [12] 98 % of control

O=S(=O)(O)SCCCNCCCCCCCCNCCCSS(=O)(=O)O
inactive: [5] 101 % of control | [6] 92 % of control | [7] 88 % of control

CC1=C2C(=O)c3ccccc3C2=C(C)S(=O)(=O)O1
inactive: [2] 101 % of control | [5] 98 % of control | [3] 88 % of control | [6] 106 % of control | [4] 94 % of control | [7] 98 % of control

NCC(=O)Oc1c(Cl)c(Cl)c(Cl)c(Cl)c1Cl
inactive: [14] 104 % of control

CCCCCN(CCCCC)C(=O)c1ccc([N+](=O)[O-])cc1
inactive: endpoint: mean survival time, dose: 100.0 mg/kg/injection, schedule: Q01DX009 (ip), vehicle: Klucel (hydroxypropylcellulose) (HPC) 97 % of control | endpoint: mean survival time, dose: 100.0 mg/kg/injection, schedule: Q04DX003 (ip), vehicle: Klucel (hydroxypropylcellulose) (HPC) 100 % of control | endpoint: mean survival time, dose: 200.0 mg/kg/injection, schedule: Q01DX009 (ip), vehicle: Klucel (hydroxypropylcellulose) (HPC) 97 % of control | endpoint: mean survival time, dose: 200.0 mg/kg/injection, schedule: Q04DX003 (ip), vehicle: Klucel (hydroxypropylcellulose) (HPC) 96 % of control | endpoint: mean survival time, dose: 400.0 mg/kg/injection, schedule: Q01DX009 (ip), vehicle: Klucel (hydroxypropylcellulose) (HPC) 94 % of control | endpoint: mean survival time, dose: 400.0 mg/kg/injection, schedule: Q04DX003 (ip), vehicle: Klucel (hydroxypropylcellulose) (HPC) 105 % of control

C/C=C(\CC)C1(C(C)C)C(=O)NC(=O)NC1=O
inactive: [14] 91 % of control

O=C1c2ccccc2C(=O)N1C1CCC(CO)C1 (centres undefined)
inactive: [11] 106 % of control | [13] 102 % of control | [12] 91 % of control

Cc1cc(/C=N/N2CCN(/N=C/c3cc(C)n(-c4ccccc4)c3C)CC2)c(C)n1-c1ccccc1
inactive: [11] 95 % of control | [13] 88 % of control | [12] 90 % of control

CC(C)=CCCC/C=N/NC(N)=O
inactive: endpoint: mean survival time, dose: 75.0 mg/kg/injection, schedule: Q01DX001 (ip), vehicle: acetone 102 % of control | endpoint: mean survival time, dose: 150.0 mg/kg/injection, schedule: Q01DX001 (ip), vehicle: acetone 97 % of control

CC(=O)Cn1c(=O)oc2ccccc2c1=O
inactive: [1] 102 % of control | [5] 108 % of control | [6] 102 % of control

O=C1c2ccccc2C(=O)N1CCCCCCCCCCCCCCN1C(=O)c2ccccc2C1=O
inactive: endpoint: mean survival time, dose: 100.0 mg/kg/injection, schedule: Q01DX001 (ip), vehicle: Klucel (hydroxypropylcellulose) (HPC) 94 % of control | endpoint: mean survival time, dose: 200.0 mg/kg/injection, schedule: Q01DX001 (ip), vehicle: Klucel (hydroxypropylcellulose) (HPC) 94 % of control

BrCCCCCc1ccccc1
inactive: endpoint: mean survival time, dose: 100.0 mg/kg/injection, schedule: Q01DX001 (ip), vehicle: saline 106 % of control | endpoint: mean survival time, dose: 200.0 mg/kg/injection, schedule: Q01DX001 (ip), vehicle: saline 107 % of control | endpoint: mean survival time, dose: 400.0 mg/kg/injection, schedule: Q01DX001 (ip), vehicle: saline 101 % of control
